# Test results taken from ChEMBL document CHEMBL6121014, “Novel α-mangostin derivatives as promising antiviral agents: Isolation, synthesis, and evaluation against chikungunya virus” (Eur J Med Chem, 2025).
# pIC50: −log10 of the molar value. Active and inactive are the calls of the source. The rule behind the calls is not given here.
# Key:
# Vero = assay: (§1) Cytotoxicity against green monkey Vero cells assessed as reduction in cell viability at 24 to 48 hrs by MTT assay; type: toxicity, cell-based; set-up: Activity: concentration or dose not given beside the values; conditions: chlorocebus sabaeus, vero; time 24-48 hrs
# [1] = as §1; type: toxicity, cell-based; set-up: Activity: concentration or dose not given beside the values; conditions: chlorocebus sabaeus, Vero cells; time 24-48 hrs
# Chikungunya virus [2] = assay: Antiviral activity against CHIKV infected in green monkey Vero cells assessed as inhibition of viral entry by entry assay; type: functional, organism-based
# Chikungunya virus [3] = assay: Antiviral activity against CHIKV infected in green monkey Vero cells assessed as reduction in viral titer pretreated the cells with viral infection for 1 hr followed by compound addition and measured after 24 hrs by Foci forming unit assay; type: functional, organism-based
# [4] = Selectivity ratio of IC50 for antiviral activity against CHIKV infected in green monkey Vero cells assessed as reduction in viral titer pretreated the cells with viral infection for 1 hr followed by compound addition and measured after 24 hrs by Foci forming unit assay to CC50 for cytotoxicity against green monkey Vero cells; type: toxicity, cell-based
# Chikungunya virus [5] = assay: Antiviral activity against CHIKV infected in green monkey Vero cells assessed as inhibition of viral post entry by entry bypass assay; type: functional, organism-based
# Chikungunya virus [6] = assay: Antiviral activity against CHIKV infected in green monkey Vero cells assessed as reduction in viral titer at 3.125 uM pretreated the cells with viral infection for 1 hr followed by compound addition and measured after 24 hrs by Foci forming unit assay (reference value: 8.55 log10FFU/ml); type: functional
# Chikungunya virus [7] = assay: Antiviral activity against CHIKV infected in green monkey Vero cells assessed as reduction in viral titer at 6.25 uM pretreated with compound for 24 hrs followed by viral infection by Foci forming unit assay (reference value: 8.55 log10FFU/ml); type: functional
# Chikungunya virus [8] = assay: Antiviral activity against CHIKV infected in green monkey Vero cells assessed as reduction in viral titer at 50 uM pretreated with compound for 24 hrs followed by viral infection by foci forming unit assay (reference value: 8.48 log10FFU/ml); type: functional
# Chikungunya virus [9] = assay: Antiviral activity against CHIKV infected in green monkey Vero cells assessed as reduction in viral titer at 12.5 to 50 uM pretreated the cells with viral infection for 1 hr followed by compound addition and measured after 24 hrs by Foci forming unit assay (reference value: 8.55 log10FFU/ml); type: functional; conditions: dose 12.5-50 µM
# Chikungunya virus [10] = assay: Antiviral activity against CHIKV infected in green monkey Vero cells assessed as reduction in viral titer pretreated with compound for 24 hrs followed by viral infection by Foci forming unit assay; type: functional, organism-based
# Chikungunya virus [11] = assay: Antiviral activity against CHIKV infected in green monkey Vero cells assessed as reduction in viral titer at 25 uM pretreated with compound for 24 hrs followed by viral infection by foci forming unit assay (reference value: 8.48 log10FFU/ml); type: functional
# Chikungunya virus [12] = assay: Antiviral activity against CHIKV infected in green monkey Vero cells assessed as inhibition of infectious virus preincubated the cells for 45 mins followed by compound addition and measured after 1 to 6 hrs post infection by time of addition assay; type: functional, organism-based; conditions: time 1-6 hrs
# Chikungunya virus [13] = assay: Antiviral activity against CHIKV infected in green monkey Vero cells assessed as inhibition of infectious virus preincubated the cells for 45 mins followed by compound addition and measured after 5 to 6 hrs post infection by time of addition assay; type: functional; set-up: scale not given: the % may be the effect or the level left; conditions: time 5-6 hrs
# Chikungunya virus [14] = assay: Antiviral activity against CHIKV infected in green monkey Vero cells assessed as reduction in viral titer at 6.25 uM pretreated with compound for 24 hrs followed by viral infection by Foci forming unit assay (reference value: 8.81 log10FFU/ml); type: functional, organism-based
# Chikungunya virus [15] = assay: Antiviral activity against CHIKV infected in green monkey Vero cells assessed as reduction in viral titer at 50 uM pretreated with compound for 24 hrs followed by viral infection by Foci forming unit assay (reference value: 8.81 log10FFU/ml); type: functional
SMILES,Activity (Vero),CC50 [1],pIC50 (Chikungunya virus [3]),other results
COc1c(OCC#Cc2ccccc2)cc2oc3cc4c(c(O)c3c(=O)c2c1CC=C(C)C)C=CC(C)(C)O4,> 90%,,,
O[C@H]1[C@H](O)[C@@H](O)[C@H](O)[C@@H](O)[C@H]1O [INOSITOL],> 90%,,,
COc1c(OCc2cn(-c3ccc(Br)cc3)nn2)cc2oc3cc4c(c(O)c3c(=O)c2c1CC=C(C)C)C=CC(C)(C)O4,< 90%,,,
COc1c(OCc2cn(-c3ccc(C)c(C)c3)nn2)cc2oc3cc4c(c(O)c3c(=O)c2c1CC=C(C)C)C=CC(C)(C)O4,> 90%,,,
COc1c(OCC(=O)N2CCN(S(=O)(=O)c3ccc(Br)cc3)CC2)cc2oc3cc4c(c(O)c3c(=O)c2c1CC=C(C)C)C=CC(C)(C)O4,> 90%,,,
COc1c(OCc2cn(-c3ccc(F)c(Cl)c3)nn2)cc2oc3cc4c(c(O)c3c(=O)c2c1CC=C(C)C)C=CC(C)(C)O4,> 90%,,,
C#CCOc1cc2oc3cc4c(c(O)c3c(=O)c2c(CC=C(C)C)c1OC)C=CC(C)(C)O4,> 90%,,,
COc1c(OCC#Cc2ccccc2Br)cc2oc3cc4c(c(O)c3c(=O)c2c1CC=C(C)C)C=CC(C)(C)O4,> 90%,,,
COc1c(OCC#Cc2ccc(C(C)=O)cc2)cc2oc3cc4c(c(O)c3c(=O)c2c1CC=C(C)C)C=CC(C)(C)O4,> 90%,194 µM,6.52,Activity (Chikungunya virus [2]): Active; selectivity ratio at 24 h [4]: 637; Activity (Chikungunya virus [5]): Active; Highest Inhibitory Effect Observed
COc1c(OCC#Cc2cccc(C(F)(F)F)c2)cc2oc3cc4c(c(O)c3c(=O)c2c1CC=C(C)C)C=CC(C)(C)O4,> 90%,,,
COc1c(OCc2cn(-c3cccc(C(F)(F)F)c3)nn2)cc2oc3cc4c(c(O)c3c(=O)c2c1CC=C(C)C)C=CC(C)(C)O4,> 90%,,,
COc1c(O)cc2oc3cc(O)c(CC=C(C)C)c(O)c3c(=O)c2c1CC=C(C)C [MANGOSTIN],> 90%,15.4 µM,5.66,Activity (Chikungunya virus [6]): 7.37 log10FFU/ml; Activity (Chikungunya virus [7]): 7.28 log10FFU/ml
O=c1c2cc(O)c(O)cc2oc2cc(O)cc(O)c12,> 90%,,,
COc1c(OCC(=O)N2CCN(S(=O)(=O)c3ccc(F)cc3)CC2)cc2oc3cc4c(c(O)c3c(=O)c2c1CC=C(C)C)C=CC(C)(C)O4,> 90%,191 µM,4.58,Activity (Chikungunya virus [8]): 7.13 log10FFU/ml; Activity (Chikungunya virus [9]): 7.37 log10FFU/ml; pIC50 (Chikungunya virus [10]): 5.11; selectivity ratio at 24 h [4]: 7.3; Activity (Chikungunya virus [11]): 7.21 log10FFU/ml
COc1c(OCC#Cc2ccc(C#N)cc2)cc2oc3cc4c(c(O)c3c(=O)c2c1CC=C(C)C)C=CC(C)(C)O4,> 90%,,,
O=c1cc(-c2ccc(O)c(O)c2)oc2c(O)c(O)cc(O)c12 [HYPOLAETIN],> 90%,,,
COc1c(OCC#Cc2ccc(O)cc2)cc2oc3cc4c(c(O)c3c(=O)c2c1CC=C(C)C)C=CC(C)(C)O4,> 90%,,,Activity (Chikungunya virus [12]): Active
COc1c(OCc2cn(-c3cc(C)ccc3C)nn2)cc2oc3cc4c(c(O)c3c(=O)c2c1CC=C(C)C)C=CC(C)(C)O4,> 90%,,,

SMILES,Activity (Vero),CC50 [1],pIC50 (Chikungunya virus [3]),other results
COc1c(OCC#Cc2ccc(Cl)cc2)cc2oc3cc4c(c(O)c3c(=O)c2c1CC=C(C)C)C=CC(C)(C)O4,> 90%,,,
COc1c(OCC#Cc2ccc(I)cc2)cc2oc3cc4c(c(O)c3c(=O)c2c1CC=C(C)C)C=CC(C)(C)O4,> 90%,,,
COc1c(OCC(=O)N2CCN(S(=O)(=O)c3ccc(C)cc3)CC2)cc2oc3cc4c(c(O)c3c(=O)c2c1CC=C(C)C)C=CC(C)(C)O4,> 90%,,,
COc1c(OCC(=O)N2CCN(S(=O)(=O)c3ccc(C#N)cc3)CC2)cc2oc3cc4c(c(O)c3c(=O)c2c1CC=C(C)C)C=CC(C)(C)O4,> 90%,223 µM,5.73,Activity (Chikungunya virus [6]): 7.44 log10FFU/ml; selectivity ratio at 24 h [4]: 119
COc1c(OCc2cn(-c3c(C)cccc3C)nn2)cc2oc3cc4c(c(O)c3c(=O)c2c1CC=C(C)C)C=CC(C)(C)O4,> 90%,,,Activity (Chikungunya virus [5]): Active
CC(C)=CCc1c(O)cc2oc3cc(O)c4c(c3c(=O)c2c1O)CCC(C)(C)O4,> 90%,11.4 µM,5.39,selectivity ratio at 24 h [4]: 2.79; Activity (Chikungunya virus [7]): 7.43 log10FFU/ml
COc1c(OCc2cn(-c3c(C)cc(C)cc3C)nn2)cc2oc3cc4c(c(O)c3c(=O)c2c1CC=C(C)C)C=CC(C)(C)O4,< 90%,,,
C=C(C)C1Cc2c(cc3oc4cc(O)c(OC)c(CC=C(C)C)c4c(=O)c3c2O)O1 (stereo not given) [MANGOSTENONE F],> 90%,12.8 µM,5.71,pIC50 (Chikungunya virus [10]): 4.66; Activity (Chikungunya virus [6]): 7.42 log10FFU/ml; selectivity ratio at 24 h [4]: 6.54
CC(C)=CCc1c(O)c(CC=C(C)C)c2oc3c(O)ccc(O)c3c(=O)c2c1O [GARTANIN],> 90%,7.71 µM,5.43,selectivity ratio at 24 h [4]: 2.07; Activity (Chikungunya virus [7]): 7.42 log10FFU/ml
COc1c(OCc2cn(-c3cccc(C)c3)nn2)cc2oc3cc4c(c(O)c3c(=O)c2c1CC=C(C)C)C=CC(C)(C)O4,> 90%,,,
COc1c(OCc2cn(-c3ccc(Cl)cc3)nn2)cc2oc3cc4c(c(O)c3c(=O)c2c1CC=C(C)C)C=CC(C)(C)O4,> 90%,59.7 µM,6.02,Activity (Chikungunya virus [2]): Active; Activity (Chikungunya virus [13]): >90%; Activity (Chikungunya virus [12]): Active; selectivity ratio at 24 h [4]: 63.1; Activity (Chikungunya virus [5]): Active
COc1c(O)cc2oc3cc(O)c4c(c3c(=O)c2c1CC=C(C)C)OC(C)(C)CC4,> 90%,119 µM,4.53,Activity (Chikungunya virus [6]): 7.39 log10FFU/ml; Activity (Chikungunya virus [14]): Active; selectivity ratio at 24 h [4]: 4.01; Activity (Chikungunya virus [15]): 7.62 log10FFU/ml
Oc1cc(O)c2c(c1)O[C@@H](c1ccc(O)c(O)c1)[C@@H](O)C2 [(+)-EPICATECHIN],> 90%,206 µM,5.06,Activity (Chikungunya virus [9]): ~7.4 log10FFU/ml; Activity (Chikungunya virus [14]): Active; selectivity ratio at 24 h [4]: 23.8; Activity (Chikungunya virus [15]): 7.45 log10FFU/ml
COc1c(OCc2cn(-c3cc(Cl)ccc3Cl)nn2)cc2oc3cc4c(c(O)c3c(=O)c2c1CC=C(C)C)C=CC(C)(C)O4,> 90%,148 µM,5.71,Activity (Chikungunya virus [2]): Active; Largest Inhibitory Effect Was Observed; Activity (Chikungunya virus [13]): >90%; Activity (Chikungunya virus [12]): Active; selectivity ratio at 24 h [4]: 76
COc1c(OCc2cn(-c3ccc(C)cc3C)nn2)cc2oc3cc4c(c(O)c3c(=O)c2c1CC=C(C)C)C=CC(C)(C)O4,> 90%,,,
COc1c(OCc2cn(-c3cccc(F)c3F)nn2)cc2oc3cc4c(c(O)c3c(=O)c2c1CC=C(C)C)C=CC(C)(C)O4,> 90%,,,
COc1c(OCc2cn(-c3ccccc3)nn2)cc2oc3cc4c(c(O)c3c(=O)c2c1CC=C(C)C)C=CC(C)(C)O4,> 90%,,,
